Experimental data taken from PubChem BioAssay (NCI).
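Dose response: 5 concentrations. Exposure: 48 h. Format: 96-well plates. Endpoint: linear interpolation; highest concentration if not reached. Here, GI50 denotes the concentration required for 50% inhibition of growth. Definition used: TGI = concentration required for complete inhibition of growth.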

Assays:
Assay in all cases: DTP human tumour cell line panel, 48 h
A498 renal = test system: A498 renal
OVCAR-3 ovarian = test system: OVCAR-3 ovarian
NCI-H522 lung = test system: NCI-H522 lung
HCC-2998 colon = test system: HCC-2998 colon
TK-10 renal = test system: TK-10 renal
UACC-257 melanoma = test system: UACC-257 melanoma
M14 melanoma = test system: M14 melanoma
PC-3 prostate = test system: PC-3 prostate
SNB-19 CNS = test system: SNB-19 CNS
SK-MEL-5 melanoma = test system: SK-MEL-5 melanoma
SF-539 CNS = test system: SF-539 CNS
HCT-116 colon = test system: HCT-116 colon
HL-60(TB) leukemia = test system: HL-60(TB) leukemia
OVCAR-5 ovarian = test system: OVCAR-5 ovarian
DU-145 prostate = test system: DU-145 prostate
NCI-H460 lung = test system: NCI-H460 lung
KM12 colon = test system: KM12 colon
T-47D breast = test system: T-47D breast
ACHN renal = test system: ACHN renal
SN12C renal = test system: SN12C renal
EKVX NSCLC = test system: EKVX NSCLC
UACC-62 melanoma = test system: UACC-62 melanoma
HCT-15 colon = test system: HCT-15 colon
SK-OV-3 ovarian = test system: SK-OV-3 ovarian
CAKI-1 renal = test system: CAKI-1 renal
MOLT-4 leukemia = test system: MOLT-4 leukemia
MCF7 breast = test system: MCF7 breast
SF-295 CNS = test system: SF-295 CNS
BT-549 breast = test system: BT-549 breast
SF-268 CNS = test system: SF-268 CNS
MDA-MB-435 = test system: MDA-MB-435
RXF 393 renal = test system: RXF 393 renal
K-562 leukemia = test system: K-562 leukemia
HOP-62 NSCLC = test system: HOP-62 NSCLC
HOP-92 NSCLC = test system: HOP-92 NSCLC
COLO 205 colon = test system: COLO 205 colon
UO-31 renal = test system: UO-31 renal
MDA-MB-231 breast = test system: MDA-MB-231 breast
SK-MEL-28 melanoma = test system: SK-MEL-28 melanoma
NCI-H226 lung = test system: NCI-H226 lung
SR leukemia = test system: SR leukemia
SNB-75 CNS = test system: SNB-75 CNS
HT29 colon = test system: HT29 colon
MALME-3M melanoma = test system: MALME-3M melanoma
SW-620 colon = test system: SW-620 colon
786-0 renal = test system: 786-0 renal

Work on O=C1c2[nH]cc(CN3CCNCC3)c2C(=O)c2c1c(O)c1ccccc1c2O yielded a GI50 (A498 renal) of 1.01 µM, a TGI (A498 renal) of 2.38 µM and a GI50 (OVCAR-3 ovarian) of 1.77 µM. The TGI (OVCAR-3 ovarian) was 4.05 µM, the GI50 (NCI-H522 lung) was 1.76 µM and the TGI (NCI-H522 lung) was 3.65 µM. The GI50 (HCC-2998 colon) was 1.18 µM, the TGI (HCC-2998 colon) was 2.88 µM and the GI50 (TK-10 renal) was 6.5 µM. The TGI (TK-10 renal) was 12.2 µM, the GI50 (UACC-257 melanoma) was 4.47 µM and the GI50 (M14 melanoma) was 1.53 µM. For the same compound, the TGI (M14 melanoma) was 3.23 µM, the GI50 (PC-3 prostate) was 1.83 µM and the TGI (PC-3 prostate) was 4.41 µM. For the same compound, the GI50 (SNB-19 CNS) was 2.22 µM, the TGI (SNB-19 CNS) was 6 µM and the GI50 (SK-MEL-5 melanoma) was 1.64 µM. It also gave a TGI (SK-MEL-5 melanoma) of 3.14 µM, a GI50 (SF-539 CNS) of 1.85 µM and a TGI (SF-539 CNS) of 3.31 µM. The GI50 (HCT-116 colon) was 1.07 µM, the TGI (HCT-116 colon) was 2.25 µM and the GI50 (HL-60(TB) leukemia) was 22 µM. For the same compound, the TGI (HL-60(TB) leukemia) was greater than 100 µM, the GI50 (OVCAR-5 ovarian) was 1.86 µM and the TGI (OVCAR-5 ovarian) was 4.13 µM. The GI50 (DU-145 prostate) was 1.67 µM, the TGI (DU-145 prostate) was 3.06 µM and the GI50 (NCI-H460 lung) was 18.5 µM. For the same compound, the TGI (NCI-H460 lung) was greater than 78.3 µM, the GI50 (KM12 colon) was 20.9 µM and the TGI (KM12 colon) was 53 µM. It also gave a GI50 (T-47D breast) of 13.8 µM, a TGI (T-47D breast) of 34.4 µM and a GI50 (ACHN renal) of 1.57 µM. It also gave a TGI (ACHN renal) of 3.37 µM, a GI50 (SN12C renal) of 1.78 µM and a TGI (SN12C renal) of 5.15 µM. For the same compound, the GI50 (EKVX NSCLC) was 0.769 µM, the TGI (EKVX NSCLC) was 2.49 µM and the GI50 (UACC-62 melanoma) was 1.71 µM. It also gave a TGI (UACC-62 melanoma) of 3.28 µM, a GI50 (HCT-15 colon) of 1.31 µM and a TGI (HCT-15 colon) of 2.7 µM. The GI50 (SK-OV-3 ovarian) was 5.76 µM, the TGI (SK-OV-3 ovarian) was 27.7 µM and the GI50 (CAKI-1 renal) was 2.21 µM. The TGI (CAKI-1 renal) was 5.94 µM, the GI50 (MOLT-4 leukemia) was 3.08 µM and the TGI (MOLT-4 leukemia) was greater than 20 µM. The GI50 (MCF7 breast) was 32.9 µM, the TGI (MCF7 breast) was greater than 100 µM and the GI50 (SF-295 CNS) was 1.74 µM. It also gave a TGI (SF-295 CNS) of 3.37 µM, a GI50 (BT-549 breast) of 4.86 µM and a TGI (BT-549 breast) of 20.3 µM. The GI50 (SF-268 CNS) was 22.9 µM, the TGI (SF-268 CNS) was 66.4 µM and the GI50 (MDA-MB-435) was 2.54 µM. The TGI (MDA-MB-435) was 4.59 µM, the GI50 (RXF 393 renal) was 23.9 µM and the TGI (RXF 393 renal) was 71.2 µM. It also gave a GI50 (K-562 leukemia) of 3.42 µM, a TGI (K-562 leukemia) greater than 100 µM and a TGI (HOP-62 NSCLC) of 1.14 µM. The GI50 (HOP-92 NSCLC) was 3.05 µM, the TGI (HOP-92 NSCLC) was 13.1 µM and the GI50 (COLO 205 colon) was 1.59 µM. It also gave a TGI (COLO 205 colon) of 3.39 µM, a GI50 (UO-31 renal) of 1.7 µM and a TGI (UO-31 renal) of 5.96 µM. For the same compound, the GI50 (MDA-MB-231 breast) was 1.51 µM, the TGI (MDA-MB-231 breast) was 3.18 µM and the GI50 (SK-MEL-28 melanoma) was 1.62 µM. For the same compound, the TGI (SK-MEL-28 melanoma) was 3.6 µM, the GI50 (NCI-H226 lung) was 12.2 µM and the TGI (NCI-H226 lung) was 40.7 µM. The GI50 (SR leukemia) was 6.09 µM, the TGI (SR leukemia) was greater than 100 µM and the GI50 (SNB-75 CNS) was 15.4 µM. For the same compound, the TGI (SNB-75 CNS) was 37.8 µM, the GI50 (HT29 colon) was 2.44 µM and the TGI (HT29 colon) was greater than 100 µM. For the same compound, the GI50 (MALME-3M melanoma) was 6.3 µM and the TGI (MALME-3M melanoma) was 13.3 µM.

In the case of N=C(N)c1ccc(-c2ccc(-c3ccc(F)cc3)s2)cc1, the GI50 (DU-145 prostate) is reported as 1.63 µM, the TGI (DU-145 prostate) is reported as 2.98 µM and the GI50 (SR leukemia) is reported as 0.307 µM. For the same compound, the TGI (SR leukemia) was greater than 100 µM.

In the case of CN(C)[C@@H]1C(=O)C(C(N)=O)=C(O)[C@@]2(O)C(=O)C3=C(O)c4c(O)cc(CN5CCc6ccccc6C5)c(Cl)c4C[C@H]3C[C@@H]12, the GI50 (A498 renal) is reported as 1.76 µM, the TGI (A498 renal) is reported as 3.29 µM and the GI50 (M14 melanoma) is reported as 1.61 µM. The TGI (M14 melanoma) was 3.03 µM, the GI50 (SW-620 colon) was 1.92 µM and the TGI (SW-620 colon) was 3.6 µM. The GI50 (HCT-116 colon) was 1.6 µM, the TGI (HCT-116 colon) was 2.97 µM and the GI50 (OVCAR-5 ovarian) was 1.62 µM. The TGI (OVCAR-5 ovarian) was 3.02 µM, the GI50 (DU-145 prostate) was 1.64 µM and the TGI (DU-145 prostate) was 3.04 µM. The GI50 (NCI-H460 lung) was 1.79 µM, the TGI (NCI-H460 lung) was 3.4 µM and the GI50 (HCT-15 colon) was 0.0531 µM. It also gave a TGI (HCT-15 colon) of 2.36 µM, a GI50 (SK-OV-3 ovarian) of 1.73 µM and a TGI (SK-OV-3 ovarian) of 3.18 µM. For the same compound, the GI50 (786-0 renal) was 1.76 µM and the TGI (786-0 renal) was 3.3 µM.

With N=C(N)c1ccc(-c2ccc(-c3ccccc3)s2)cc1F the GI50 (DU-145 prostate) was 1.13 µM and the TGI (DU-145 prostate) was 2.38 µM.
